Experimental data taken from publication PMC12160547, “Identification of a Novel Small Molecule STING Agonist Reshaping the Immunomicroenvironment of Pancreatic Ductal Adenocarcinoma” (International Journal of Biological Sciences, 2025).

Columns and labels:
[1] = system: human STING variants (R232); assay: Differential scanning fluorimetry (DSF); assay type: binding; settings: n = 3
Text: (§1) human STING variants (R232) and mouse STING (R231) in differential scanning
(§2) fluorimetry (DSF) assay. The data were shown as the mean value of fluorescence (n =
(§3) (1 picture or pasted object on this page, not shown here)

mouse STING (R231) = target: T1, mouse STING (R231) (Mus musculus, UniProt Q3TBT3); assay: Differential scanning fluorimetry (DSF); assay type: binding; settings: n = 3
T1 sequence (Q3TBT3 1-378): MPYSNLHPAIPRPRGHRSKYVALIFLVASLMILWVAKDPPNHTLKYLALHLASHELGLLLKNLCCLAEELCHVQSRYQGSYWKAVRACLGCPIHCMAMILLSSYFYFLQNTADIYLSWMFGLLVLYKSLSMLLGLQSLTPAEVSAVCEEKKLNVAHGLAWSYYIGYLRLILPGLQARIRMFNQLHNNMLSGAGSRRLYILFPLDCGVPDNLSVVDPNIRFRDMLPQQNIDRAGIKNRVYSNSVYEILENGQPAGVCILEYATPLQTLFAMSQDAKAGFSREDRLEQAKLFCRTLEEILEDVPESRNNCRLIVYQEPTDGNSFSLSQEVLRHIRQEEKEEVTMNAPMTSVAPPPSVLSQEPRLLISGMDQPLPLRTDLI
Text: as §1, §2, §3

[2] = Metabolite profiling in liver microsomes, 60 min incubation; assay type: in vitro ADME, dog; settings: D166 incubated 60 min; selected ion chromatographic peak areas
h-STING = target: T2, h-STING (Homo sapiens, UniProt Q86WV6, G230A/R293Q/R71H); assay: THP1-Dual reporter activation fold; assay type: cell-based
T2 construct: THP1-Dual Fold (10 μM); endogenous in cells; host or cells: THP1-Dual

[3] = system: STING and downstream signaling molecules; assay: STING pathway western blot in Panc-1 cell line; assay type: cell-based; settings: human pancreatic cell line Panc-1
Experimental: Tumor tissues or cells were thoroughly lysed in RIPA buffer containing protease and phosphatase inhibitors. The lysates were then centrifuged to collect the supernatant. Proteins were separated by electrophoresis in MOPS buffer and subsequently transferred onto a PVDF membrane. After blocking, the membrane was sequentially incubated with the primary antibody, secondary antibody, and chemiluminescent substrate (ECL) for imaging.
Western Blot showing cGAS-STING pathway protein expression of Panc-1 cell line
(B) CCK8 of Panc-1 cell line when
(C-D) Representative image (C) and statistic (D) of […]

[4] = Pharmacokinetic parameters, i.v. and p.o.; assay type: in vivo; settings: plasma
m-STING = target: T3, m-STING (Mus musculus, UniProt Q3TBT3); assay: Raw-lucia reporter activation fold; assay type: cell-based
T3 construct: Raw-lucia Fold (50 μM); endogenous in cells; host or cells: RAW-Lucia
T3 sequence (Q3TBT3 1-378): T1 sequence (Q3TBT3 1-378)

[5] = system: pancreatic tumor organoids co-cultured with T cells or macrophages; assay: Co-culture of pancreatic tumor organoids and immune cells; assay type: cell-based, human
Experimental: T cells and monocytes were isolated from the peripheral blood of patients using the EasySep™ Human CD8+ T Cell Isolation Kit and Human Monocyte Isolation Kit ([…]). CD8+ T cells were activated with anti-CD3 (5 μg/mL) and anti-CD28 (5 μg/mL) antibodies (BioLegend), while monocytes were stimulated with 50 ng/mL of M-CSF (BioLegend) for 6 days to induce differentiation into macrophages. […] On day 5, immune cells were harvested for flow cytometry analysis. Tumor organoids were photographed, viability was assessed, and organoids were embedded for HE and IHC staining at days 0, 5, and 10 of co-culture.
Mouse tumors were digested using the Mouse Tumor Dissociation Kit (Miltenyi Biotec) according to the manufacturer's protocol. The resulting single-cell suspension was filtered through a 70-micron mesh to ensure a homogeneous cell population. Cells were stained with fluorescently labeled antibodies for flow cytometry at 4°C on ice for 30 minutes. After washing off unbound antibodies, fluorescence was detected using a Beckman CytoFlex S flow cytometer. For co-cultured immune cells, separated T cells and macrophages were similarly stained with flow cytometry antibodies. For cytokine staining, cells were pre-stimulated with the eBioscience™ Cell Stimulation Cocktail for 4 hours. For intracellular protein staining, after surface staining, cells were fixed and permeabilized using the BD Cytofix/Cytoperm™ Fixation/Permeabilization Kit, followed by staining for intracellular proteins. Flow cytometry data were analyzed using FlowJo 10 software.

[6] = Metabolite profiling in liver microsomes, 60 min incubation; assay type: in vitro ADME, mouse; settings: D166 incubated 60 min; selected ion chromatographic peak areas

T2 sequence (Q86WV6 whole entry R71H/G230A/R293Q): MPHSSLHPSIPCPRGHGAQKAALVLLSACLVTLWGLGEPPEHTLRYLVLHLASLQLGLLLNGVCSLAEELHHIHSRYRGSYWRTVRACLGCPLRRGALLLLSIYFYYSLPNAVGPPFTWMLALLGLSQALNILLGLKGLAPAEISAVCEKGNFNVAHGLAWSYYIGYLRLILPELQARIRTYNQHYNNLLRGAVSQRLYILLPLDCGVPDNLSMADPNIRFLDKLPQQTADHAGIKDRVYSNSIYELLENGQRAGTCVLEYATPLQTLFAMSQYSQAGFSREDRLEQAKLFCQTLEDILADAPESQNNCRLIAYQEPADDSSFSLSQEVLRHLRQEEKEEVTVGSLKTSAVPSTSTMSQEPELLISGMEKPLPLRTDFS

thermal stability of mouse STING (R231) (mouse STING (R231)): increased
Relative Peak Area Abundance (%) DLM [2]: 98.6%
THP1-Dual Fold (10 μM) (h-STING): 60.46 Fold
AUC(0-inf) ([4]; iv, average of three runs): 750 ng·h/mL
MRT inf ([4]; iv, average of three runs): 15.6 min
clearance ([4]; iv, average of three runs): 22.5 mL/min/kg
half-life ([4]; iv, average of three runs): 45 min
Vd ([4]; iv, average of three runs, read-out: Vz): 1.45 L/kg
AUC(0-inf) ([4]; po, average of three runs): 2120 ng·h/mL
MRT inf ([4]; po, average of three runs): 66 min
half-life ([4]; po, average of three runs): 81 min
bioavailability ([4]; p.o., oral bioavailability): 93.8%
Raw-lucia Fold (50 μM) (m-STING): 25.34 Fold
Relative Peak Area Abundance (%) MLM [6]: 94.2%
SMILES: [2H]C([2H])([2H])Oc1cc2cc(C(=O)CCC(=O)O)sc2cc1OC([2H])([2H])[2H] [D166]
thermal stability of human STING variants (R232) [1]: increased
activation of STING and downstream signaling molecules [3]: dose- and time-dependent manner
size and viability of pancreatic cancer organoids ([5]; CTG assay, days 0, 5, 10 of co-culture): significant reduction
IL-6, IFN-β, IFN-γ, and TNF-α levels ([5]; culture medium, ELISA): significantly increased
IFNG and GZMB release from T cells ([5]; flow cytometry): marked increase
mean fluorescence intensities (MFI) of CD86 and CD80 (M1 markers) in macrophages ([5]; flow cytometry): significantly increased
mean fluorescence intensities (MFI) of CD163 and CD206 (M2 markers) in macrophages ([5]; flow cytometry): significantly decreased
